Test results: PubChem BioAssay AID200 (DTP/NCI, 2004)
Where “and” joins values, the source holds several entries; their conditions need not be identical. Identical values can stand only once. Inconclusive results and toxic doses are left out.

Tested on: B6C3F1 mice, B16 melanoma ip, median survival T/C
Test: NCI In Vivo Anticancer Drug Screen. Data for tumor model B16 Melanoma (intraperitoneal) in B6C3F1 mice
Details: endpoint: median survival time, higher = longer survival
Summary of the method: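 Transplantable tumor in mice; treated vs vehicle control groups; survival or tumor size measured; value = T/C ratio.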

[1] = dose: 12.5 mg/kg/injection, schedule: Q01DX009 (ip), vehicle: Klucel (hydroxypropylcellulose) (HPC)
[2] = dose: 25.0 mg/kg/injection, schedule: Q01DX009 (ip), vehicle: Klucel (hydroxypropylcellulose) (HPC)
[3] = dose: 50.0 mg/kg/injection, schedule: Q01DX009 (ip), vehicle: Klucel (hydroxypropylcellulose) (HPC)
[4] = dose: 100.0 mg/kg/injection, schedule: Q01DX009 (ip), vehicle: Klucel (hydroxypropylcellulose) (HPC)
[5] = dose: 200.0 mg/kg/injection, schedule: Q01DX009 (ip), vehicle: Klucel (hydroxypropylcellulose) (HPC)
[6] = dose: 400.0 mg/kg/injection, schedule: Q01DX009 (ip), vehicle: Klucel (hydroxypropylcellulose) (HPC)

SMILES: CC[C@@H](C)[C@@H]1NC(=O)C(NC(=O)C(CC(C)C)N(C)C(=O)C2CCCN2C(=O)C(C)O)C(C)OC(=O)C(Cc2ccc(OC)cc2)N(C)C(=O)C2CCCN2C(=O)C(CC(C)C)NC(=O)C(C)C(=O)C(C(C)C)OC(=O)C[C@H]1O (stereo partly specified)
- T/C (dose: 5.0 micrograms/kg/injection, schedule: Q01DX009 (ip), vehicle: distilled water + alcohol): 102 % of control
- T/C (dose: 10.0 micrograms/kg/injection, schedule: Q01DX009 (ip), vehicle: distilled water + alcohol): 111 % of control and 112 % of control
- T/C (dose: 10.0 micrograms/kg/injection, schedule: Q01DX009 (ip), vehicle: other): 120 % of control
- T/C (dose: 20.0 micrograms/kg/injection, schedule: Q01DX005 (ip), vehicle: other): 120 % of control
- T/C (dose: 20.0 micrograms/kg/injection, schedule: Q01DX005 (iv), vehicle: other): 105 % of control
- T/C (dose: 20.0 micrograms/kg/injection, schedule: Q01DX005 (sc), vehicle: other): 111 % of control
- T/C (dose: 20.0 micrograms/kg/injection, schedule: Q01DX009 (ip), vehicle: distilled water + alcohol): 117 % of control and 123 % of control
- T/C (dose: 40.0 micrograms/kg/injection, schedule: Q01DX005 (iv), vehicle: other): 101 % of control and 104 % of control
- T/C (dose: 40.0 micrograms/kg/injection, schedule: Q01DX005 (sc), vehicle: other): 108 % of control
- T/C (dose: 40.0 micrograms/kg/injection, schedule: Q01DX009 (ip), vehicle: distilled water + alcohol): 124 % of control
- T/C (dose: 40.0 micrograms/kg/injection, schedule: Q01DX009 (ip), vehicle: other): 153 % of control
- T/C (dose: 40.0 micrograms/kg/injection, schedule: Q03HX008 (ip), vehicle: saline): 124 % of control
- T/C (dose: 71.0 micrograms/kg/injection, schedule: Q01DX009 (ip), vehicle: other): 151 % of control
- T/C (dose: 80.0 micrograms/kg/injection, schedule: Q01DX005 (ip), vehicle: other): 122 % of control
- T/C (dose: 80.0 micrograms/kg/injection, schedule: Q01DX005 (iv), vehicle: other): 112 % of control and 96 % of control
- T/C (dose: 80.0 micrograms/kg/injection, schedule: Q01DX005 (oral), vehicle: other): 100 % of control
- T/C (dose: 80.0 micrograms/kg/injection, schedule: Q01DX005 (sc), vehicle: other): 113 % of control and 103 % of control
- T/C (dose: 80.0 micrograms/kg/injection, schedule: Q01DX009 (ip), vehicle: distilled water + alcohol): 153 % of control
- T/C (dose: 80.0 micrograms/kg/injection, schedule: Q01DX009 (ip), vehicle: other): 163 % of control
- T/C (dose: 106.0 micrograms/kg/injection, schedule: Q01DX009 (ip), vehicle: other): 159 % of control
- T/C (dose: 160.0 micrograms/kg/injection, schedule: Q01DX001 (iv), vehicle: other): 102 % of control
- T/C (dose: 160.0 micrograms/kg/injection, schedule: Q01DX001 (sc), vehicle: other): 106 % of control
- T/C (dose: 160.0 micrograms/kg/injection, schedule: Q01DX005 (iv), vehicle: other): 104 % of control and 106 % of control
- T/C (dose: 160.0 micrograms/kg/injection, schedule: Q01DX005 (oral), vehicle: other): 119 % of control and 105 % of control
- T/C (dose: 160.0 micrograms/kg/injection, schedule: Q01DX005 (sc), vehicle: other): 110 % of control and 122 % of control
- T/C (dose: 160.0 micrograms/kg/injection, schedule: Q01DX009 (ip), vehicle: distilled water + alcohol): 162 % of control and 164 % of control
- T/C (dose: 160.0 micrograms/kg/injection, schedule: Q01DX009 (ip), vehicle: other): 163 % of control
- T/C (dose: 160.0 micrograms/kg/injection, schedule: Q01DX009 (ip), vehicle: saline): 151 % of control
- T/C (dose: 320.0 micrograms/kg/injection, schedule: Q01DX001 (iv), vehicle: other): 99 % of control and 106 % of control
- T/C (dose: 320.0 micrograms/kg/injection, schedule: Q01DX001 (oral), vehicle: other): 99 % of control
- T/C (dose: 320.0 micrograms/kg/injection, schedule: Q01DX001 (sc), vehicle: other): 102 % of control
- T/C (dose: 320.0 micrograms/kg/injection, schedule: Q01DX005 (ip), vehicle: other): 123 % of control
- T/C (dose: 320.0 micrograms/kg/injection, schedule: Q01DX005 (iv), vehicle: other): 104 % of control and 106 % of control
- T/C (dose: 320.0 micrograms/kg/injection, schedule: Q01DX005 (oral), vehicle: other): 104 % of control and 105 % of control
- T/C (dose: 320.0 micrograms/kg/injection, schedule: Q01DX005 (sc), vehicle: other): 94 % of control and 105 % of control
- T/C (dose: 640.0 micrograms/kg/injection, schedule: Q01DX001 (ip), vehicle: other): 116 % of control
- T/C (dose: 640.0 micrograms/kg/injection, schedule: Q01DX001 (iv), vehicle: other): 102 % of control and 108 % of control
- T/C (dose: 640.0 micrograms/kg/injection, schedule: Q01DX001 (oral), vehicle: other): 99 % of control
- T/C (dose: 640.0 micrograms/kg/injection, schedule: Q01DX001 (sc), vehicle: other): 117 % of control and 102 % of control
- T/C (dose: 640.0 micrograms/kg/injection, schedule: Q01DX005 (oral), vehicle: other): 100 % of control and 107 % of control
- T/C (dose: 1280.0 micrograms/kg/injection, schedule: Q01DX001 (ip), vehicle: other): 124 % of control
- T/C (dose: 1280.0 micrograms/kg/injection, schedule: Q01DX001 (ip), vehicle: saline): 117 % of control
- T/C (dose: 1280.0 micrograms/kg/injection, schedule: Q01DX001 (iv), vehicle: other): 118 % of control and 106 % of control
- T/C (dose: 1280.0 micrograms/kg/injection, schedule: Q01DX001 (oral), vehicle: other): 103 % of control and 108 % of control
- T/C (dose: 1280.0 micrograms/kg/injection, schedule: Q01DX001 (sc), vehicle: other): 118 % of control and 100 % of control
- T/C (dose: 1280.0 micrograms/kg/injection, schedule: Q01DX005 (oral), vehicle: other): 97 % of control and 102 % of control
- T/C (dose: 2560.0 micrograms/kg/injection, schedule: Q01DX001 (oral), vehicle: other): 114 % of control and 100 % of control
- T/C (dose: 2560.0 micrograms/kg/injection, schedule: Q01DX001 (sc), vehicle: other): 112 % of control
- T/C (dose: 2560.0 micrograms/kg/injection, schedule: Q01DX005 (oral), vehicle: other): 99 % of control and 100 % of control
- T/C (dose: 5120.0 micrograms/kg/injection, schedule: Q01DX001 (oral), vehicle: other): 101 % of control and 105 % of control
- T/C (dose: 10240.0 micrograms/kg/injection, schedule: Q01DX001 (oral), vehicle: other): 105 % of control

SMILES: C[C@]12CC[C@@H]3c4ccc(OC(=O)Cc5ccc(N(CCCl)CCCl)cc5)cc4CC[C@H]3[C@@H]1CC[C@@H]2OC(=O)Cc1ccc(N(CCCl)CCCl)cc1
- T/C [1]: 104 % of control
- T/C [2]: 92 % of control and 103 % of control
- T/C [3]: 121 % of control and 103 % of control
- T/C [4]: 90 % of control and 93 % of control
- T/C [5]: 104 % of control
- T/C [6]: 92 % of control and 103 % of control

SMILES: Cc1c2cc[n+](C)cc2c(C)c2c1[nH]c1ccc(O)cc12
- T/C (dose: 0.12 mg/kg/injection, schedule: Q01DX009 (ip), vehicle: water): 107 % of control
- T/C (dose: 0.13 mg/kg/injection, schedule: Q01DX009 (ip), vehicle: water): 117 % of control
- T/C (dose: 1.25 mg/kg/injection, schedule: Q01DX009 (ip), vehicle: saline): 123 % of control
- T/C (dose: 2.5 mg/kg/injection, schedule: Q01DX009 (ip), vehicle: saline): 116 % of control

SMILES: CC1C=NNC1=O (stereo unspecified)
- T/C [1]: 100 % of control
- T/C [2]: 102 % of control
- T/C [3]: 117 % of control
- T/C [4]: 92 % of control
- T/C [5]: 95 % of control
- T/C [6]: 95 % of control

SMILES: ClC1C(Cl)C(Cl)C(Cl)C(Cl)C1Cl (stereo unspecified)
- T/C (dose: 3.12 mg/kg/injection, schedule: Q01DX009 (ip), vehicle: saline with Tween-80): 88 % of control and 90 % of control
- T/C (dose: 6.25 mg/kg/injection, schedule: Q01DX009 (ip), vehicle: saline with Tween-80): 109 % of control and 91 % of control
- T/C (dose: 12.5 mg/kg/injection, schedule: Q01DX009 (ip), vehicle: saline with Tween-80): 107 % of control
- T/C [2]: 100 % of control
- T/C (dose: 25.0 mg/kg/injection, schedule: Q01DX009 (ip), vehicle: saline with Tween-80): 92 % of control and 97 % of control
- T/C [3]: 100 % of control
- T/C (dose: 50.0 mg/kg/injection, schedule: Q01DX009 (ip), vehicle: saline with Tween-80): 93 % of control
- T/C [4]: 105 % of control
- T/C [5]: 111 % of control
- T/C [6]: 107 % of control

SMILES: NC(=O)/C=C/c1c[nH]c2nccnc12
- T/C (dose: 1.56 mg/kg/injection, schedule: Q01DX009 (ip), vehicle: water): 86 % of control
- T/C (dose: 3.12 mg/kg/injection, schedule: Q01DX009 (ip), vehicle: water): 93 % of control
- T/C (dose: 6.25 mg/kg/injection, schedule: Q01DX009 (ip), vehicle: water): 95 % of control
- T/C (dose: 12.5 mg/kg/injection, schedule: Q01DX009 (ip), vehicle: water): 102 % of control
- T/C (dose: 25.0 mg/kg/injection, schedule: Q01DX009 (ip), vehicle: water): 108 % of control

SMILES: CC(C)CC(=O)NC(C(=O)NC(C(=O)NC(CC(C)C)C(O)CC(=O)NC(C)C(=O)NC(CC(C)C)C(O)CC(=O)O)C(C)C)C(C)C (stereo unspecified)
- T/C (dose: 6.25 mg/kg/injection, schedule: Q01DX009 (ip), vehicle: Klucel (hydroxypropylcellulose) (HPC)): 102 % of control
- T/C [1]: 93 % of control
- T/C [2]: 96 % of control
- T/C [3]: 88 % of control
